≈ marks a conversion by molar mass, not a printed value. Where two headings read alike, the source gives them in different places.
Assays:
[1] = test system: ZIKV PRVABC-59; experiment: CPE reduction assay, ZIKV Puerto Rican PRVABC-59; assay type: cell-based; conditions: Zika virus
[2] = test system: ZIKV P 6-740; experiment: CPE reduction assay, ZIKV Malaysian P 6-740; assay type: cell-based; conditions: Zika virus
[3] = test system: ZIKV MR-766; experiment: CPE reduction assay, ZIKV Ugandan MR-766; assay type: cell-based; conditions: Zika virus
[4] = test system: ZIKV (P 6-740); assay type: in vivo, AG129 mice; conditions: for Mean weight change from days 7 to 13: vehicle −3.1 ± 2.4 g, p<0.001
[5] = test system: ZIKV (P 6-740); experiment: Re-challenge of surviving BCX4430-treated AG129 mice with ZIKV; assay type: in vivo; conditions: BCX4430-treated mice (300 mg/kg/d) that survived initial ZIKV challenge
[6] = test system: ZIKV (P 6-740); assay type: in vivo, AG129 mice
[7] = test system: ZIKV MR-766; experiment: Virus yield reduction; conditions: Zika virus
[8] = test system: ZIKV Malaysian P 6-740; experiment: Virus yield reduction
[9] = test system: ZIKV P 6-740; experiment: Virus yield reduction; conditions: Zika virus
[10] = test system: ZIKV PRVABC-59; experiment: Virus yield reduction; conditions: Zika virus
[11] = test system: ZIKV; experiment: Virus yield reduction concentration-response; assay type: cell-based, Zika virus; conditions: single test
[12] = Huh-7, read-out: CPE red. assay EC50
[13] = RD, read-out: CPE red. assay EC50
[14] = Vero 76, read-out: CPE red. assay EC50
[15] = 300 mg/kg/d bid for 7 days beginning 3 dpi
[16] = Huh-7, read-out: VYR assay EC90
[17] = Vero 76, read-out: VYR assay EC90

Row | Compound | EC50 [1, 12] [µg/mL] | EC50 [1, 13] [µg/mL] | EC50 [1, 14] [µg/mL] | EC50 [2, 12] [µg/mL] | EC50 [3, 12] [µg/mL] | EC50 [3, 13] [µg/mL] | EC50 [3, 14] [µg/mL] | selectivity ratio ([8]; African green monkey) | selectivity ratio ([8]; human) | EC90 [10, 16] [µg/mL] | EC90 ([10]; RD, read-out: VYR assay EC90) [µg/mL] | EC90 [10, 17] [µg/mL] | also measured
1 | Nc1ncnc2c([C@@H]3N[C@H](CO)[C@@H](O)[C@H]3O)c[nH]c12 [BCX4430] | 4.7 ± 0.6 (≈ 17.7 µM) | 4.7 ± 2.2 (≈ 17.7 µM) | 3.8 ± 2.5 (≈ 14.3 µM) | 5.5 ± 0.1 (≈ 20.7 µM) | 5.7 ± 0.9 (≈ 21.5 µM) | 4.4 ± 1.3 (≈ 16.6 µM) | 11.7 ± 4.7 (≈ 44.1 µM) | 7.3 | 20.5 | 6.7 ± 1.2 (≈ 25.3 µM) | 10 ± 2.2 (≈ 37.7 µM) | 18.2 ± 2.7 (≈ 68.6 µM) | EC50 [2, 14]: 11.5 ± 4.4 µg/mL (≈ 43.4 µM); Mean weight change from days 7 to 13 ([4]; 150 mg/kg/d): -0.3 ± 0.8 g; Weight between 0 and 19 dpi ([4]; 300 mg/kg/d, similar to sham infected animals treated with the same dose): did not decline substantially; Mean weight change from days 7 to 13 ([4]; 300 mg/kg/d): +0.2 ± 0.5 g; Viral RNA level in pooled serum on day 5 (qRT-PCR) ([4]; either dose of BCX4430 (300 or 150 mg/kg/d)): significant reduction in viremia; Neutralizing antibody titers in serum just prior to re-challenge [5]: 4-5 log10 PRNT50; Protection from weight loss between 7 and 13 dpi ([6]; 300 mg/kg/d beginning 1, 3 or 5 dpi, vs vehicle p<0.001): Significant protection from weight loss; Viral RNA levels in serum on 5 dpi ([6]; 300 mg/kg/d beginning 1 or 3 dpi): not significantly decreased; Median survival ([6]; 300 mg/kg/d bid for 7 days beginning 1 dpi): > 28 days; Median survival [6, 15]: 19.5 days; Survivors [6, 15]: only a single mouse survived; Median survival ([6]; 300 mg/kg/d bid for 7 days beginning 5 dpi): 18 days; Median survival ([6]; 300 mg/kg/d bid for 7 days beginning 7 dpi): 17 days; EC90 [7, 16]: 6.4 µg/mL (≈ 24.1 µM); EC90 ([7]; RD, read-out: VYR assay EC90): 5.4 ± 1.1 µg/mL (≈ 20.4 µM); EC90 [7, 17]: 8.7 µg/mL (≈ 32.8 µM); EC90 [9, 16]: 4.9 ± 0.9 µg/mL (≈ 18.5 µM); EC90 [9, 17]: 13.8 ± 3.7 µg/mL (≈ 52 µM)
2 | NC(=O)c1ncn([C@@H]2O[C@H](CO)[C@@H](O)[C@H]2O)n1 [Ribavirin, reference compound] | 3.8 ± 1.6 (≈ 15.6 µM) | 10 ± 6 (≈ 40.9 µM) | 23 ± 16.8 (≈ 94.2 µM) | 7.2 ± 2.8 (≈ 29.5 µM) | 8.9 ± 7.9 (≈ 36.4 µM) | 9.3 ± 5.2 (≈ 38.1 µM) | 85 ± 77.9 (≈ 348 µM) | 1.6 | 24.5 | 10.4 ± 0.8 (≈ 42.6 µM) | 46.3 ± 8.6 (≈ 190 µM) | 281 ± 108 (≈ 1150 µM) | Activity in virus yield reduction assay ([11]; Vero76 cells (Figure 1A)): not active; Activity in virus yield reduction assay ([11]; human cell lines Huh-7 and RD (Figures 1B and C)): confirmed the antiviral activity; Viral RNA level in pooled serum on day 5 (qRT-PCR) ([4]; ribavirin i.p. bid 75 or 50 mg/kg/d): did not improve viral RNA levels; Outcome (survival) ([4]; ribavirin i.p. bid 75 or 50 mg/kg/d for 8 days): did not improve outcomes; Protection against weight loss ([4]; ribavirin i.p. bid 75 or 50 mg/kg/d, days 7 to 13): did not protect against weight loss
